Patent US20230302131A1, “MPC INHIBITION FOR PRODUCING T-CELLS WITH A MEMORY PHENOTYPE” (UNIVERSITÉ DE LAUSANNE, priority 2020, published 2023)
“Also recorded” adds a separate entry of the source.

Key:
[1] = system: B16-OVA tumor; assay: B16-OVA melanoma tumor model, adoptive cell transfer of pre-treated OT1 cells; format: in vivo, mouse
Method: To assess the functional capacity of the generated memory T cells, the MPCi-treated cells were further tested in a mouse model of melanoma. Briefly, 10^5 ovalbumin-expressing B16 melanoma cells were injected subcutaneously in 6-week-old mice. At day 6 post-engraftment, when a palpable tumor was present, mice were irradiated with 5Gy. The next day 10^5 MPCi- or DMSO-treated OT1 cells were intravenously injected, followed by a subcutaneous vaccination of 50 μg CpG and 10 μg SIINFEKL (FIG. 2A). […] Confirming the Listeria data, the proportion of central memory CD8+ T cells in the spleen was increased upon MPCi treatment (FIG. 2C).
Activated CD45.1+OT-1 splenocytes were culture in vitro for 7 days as described above, collected and purified on a Ficoll gradient, allowing to separate dead and live splenocytes. Live splenocytes were counted with Trypan blue stain 0.4%. 100′000 live splenocytes were transferred into CD45.2+ host mice by tail vein injection.
B16-OVA cells were cultured in DMEM (GIBCO) with 10% FBS and 1% P/S before their subcutaneous injection into the mouse flank. Each mouse received 100′000 cells in a volume of 200 μl of PBS. 6 days after B16-OVA cells injection, tumors were measured, mice were randomized and lymphodepleted by irradiation (5 Gray). 7 days after B16-Ova injection, mice were adoptively transferred with the ACT protocol described previously. Following the ACT, mice received a vaccination of CpG (50 μg/mouse) and N4 Ova peptide (10 μg/mouse) diluted in PBS to obtain a total volume of 100 μl/mouse, injected subcutaneously at the tail base. Tumors were measured every 2 days and the tumor volume was calculated according to the formula: V=π×[d2×D]/6, where d is the minor tumor axis and D is the major tumor axis. At day 26 days post-tumor engraftment, tumors and spleens were dissected were then stained for flow cytometry analyses.
Antibody panel for intra-tumoral T cells and splenocytic T cells was: CD8-PE-texas-Red, CD45.1-Pacific blue, CD45.2-FITC, CD62L-PE-Cy7, CD44-APC-Cy7, PD1-APC, Lag3-PE, and CD127-FITC.
Antibody panel for cytokine detection contained: CD8-PE-texas-Red, CD45.1-FITC, CD45.2-APC, TNFa-Pacific blue, IFNg-PerCP-Cy5.5, IL-2-PE.

[2] = system: OT2 CD4 T cells; assay: OT2 CD4 T cell co-culture with dendritic cells, CD62L by flow cytometry; format: cell-based, mouse; settings: 75 μM; day 7; vs DMSO
Method: Naïve CD4 T cells were isolated by negative selection (Stem Cell Technologies) from the spleen of OT2 mice. Dendritic cells were isolated from spleens of C57BL/6 mice by CD11c positive selection (Stem Cell Technologies). 2×10^5 CD4 T cells were co-cultured with 1×10^6 dendritic cells in RPMI medium supplemented with 10% FBS, 1% Penicillin/Streptomycin, 50 μM β-mercaptoethanol, 1% HEPES, 1× Non-essential amino acids (Gibco 11140-035), 2 mM L-glutamine and 1 mM Sodium Pyruvate. T cells were activated by adding 1 μg/ml Ovalbumine peptide (323-339, ISQAVHAAHAEINEAGR) and 100 IU/ml rhIL-2, in the presence of 75 μM UK5099 or DMSO. Cells were split on day 4 and re-cultured in fresh medium containing 100 IU/ml rhIL-2, in the presence of 75 μM UK5099 or DMSO.
An experiment has been performed on mouse T cells in order to evaluate if MPC inhibition also promotes memory marker expression in CD4 T cells. As indicated in the experimental scheme (FIG. 5A), CD4 T cells from OT2 mice were activated by co-culture with dendritic cells. OT2 mice are transgenic for an […] recognizing specifically a chicken ovalbumine peptide 323-339 associated with the mouse MHC class II molecule I-Ab. We activated OT2 CD4 T cells by co-culture with dendritic cells loaded with […] of the ovalbumine peptide in the presence of 100 IU/ml recombinant human IL2 in the presence of 75 μM UK5099 or DMSO control. […]

## N#CC(=Cc1cn(-c2ccccc2)c2ccccc12)C(=O)O [UK5099, 2-cyano-3-(1-phenyl-1H-indol-3-yl)-2-propenoic acid]
[1]; CD44 and CD62L double positive of transferred cells
  proportion of central memory CD8+ T cells in the spleen: increased
[1]; mice that received 10^5 pre-treated OT1 CD8+ T cells, compared to DMSO, listed as MPCi
  B16 tumor growth: enhanced anti-tumoral activity; also recorded: strongly reduced
[1]; transferred CD8+CD45.1+ population in the tumor, vs DMSO
  expression of PD-1 in T cells infiltrating the tumor: significantly decreased
[1]; tumor single cell suspension restimulated with SIINFEKL for 4 h
  cells double positive for IFNγ and TNF upon restimulation: higher proportion
[1]; upon dissection, data not shown
  percentage of transferred cells out of total CD8+ T cells in spleen and tumor: not strikingly different
[2]
  CD62L-positive population of mouse CD4 T cells: strong increase
